Reference: patent publication US20170165230A1, “USE OF GSK-3 INHIBITORS OR ACTIVATORS WHICH MODULATE PD-1 OR T-BET EXPRESSION TO MODULATE T CELL IMMUNITY” (priority 2014, published 2017)
“Also recorded” adds a separate entry of the source.

Assays:
[1] = tested on: PD-1 expression on T-cells; assay: FACS of PD-1 expression induced by mixed lymphocyte reaction (C57Bl/6 + ICR/CD1 spleen T-cells, 60 hours); assay type: cell-based, mouse; settings: C57Bl/6 + ICR/CD1 co-culture, 60 hours (FIG. 5, 6)
Protocol: Cell flow cytometry with an acquisition of 10 000 events and data analysis using FlowJo).
C57BL/6J (B6) or outbred mouse CRI/CD1 T-cells were cultivated either alone or together at equal numbers (1×10^6/ml) for 60 hours in the presence or absence of the inhibitor followed by the harvesting of cells and FACs analysis for PD-1 using anti-PD-1-PE.

[2] = tested on: PD-1 expression on T-cells; assay: FACS of PD-1 expression on T-cells activated with anti-CD3 (2C11) for 48 hours; assay type: cell-based, mouse; settings: anti-CD3 (2C11) 48 hours; anti-CD3 increased MFI by 5 fold (FIG. 4)
Protocol: For anti-CD3 activation of T-cells, cells were stimulated with 5 μg/ml of anti-CD3 (2C11) in RPMI medium supplemented with 10% FCS, 2 mM glutamine, 50 uM 2-ME, 100 U/ml penicillin/streptomycin for 2-4 days using established methods.
(§1) The presence of cells was confirmed by using forward scatter height or side scatter height n the form of a dot and contor plots. […] Non-stained cells were used a control.
(§2) The chemical structures of each inhibitor are shown on bottom and right sides of figure.
as §2

[3] = tested on: CD69 expression; assay: FACS of CD69 expression on T-cells from EL4-OVA tumor-bearing mice treated in vivo; parameters: species or system mouse; settings: EL4-OVA model (FIG. 12d)
[4] = tested on: CD3 expression; assay: FACS of CD3 expression on OVA-activated OT-1 T-cells; assay type: cell-based, mouse
Description: as §1

[5] = tested on: PD-1 expression on T-cells; assay: FACS of PD-1 expression on T-cells from EL4-OVA tumor-bearing mice treated in vivo; parameters: species or system mouse; settings: EL4-OVA model
[6] = tested on: panel of 24 other protein kinases; settings: selectivity; cited from earlier work
[7] = tested on: CTLA-4 (CD152) expression; assay: FACS of CTLA-4 (CD152) expression on T-cells from EL4-OVA tumor-bearing mice treated in vivo; parameters: species or system mouse; settings: EL4-OVA model (FIG. 12e)
[8] = tested on: PD-1 expression on OT-1 T-cells; assay: FACS of PD-1 surface expression on OT-1 T-cells stimulated in vitro by OVA peptide presented by EL-4 cells; assay type: cell-based, mouse; settings: OT-1 T-cells stimulated in vitro by OVA peptide presented by EL-4 cells (FIG. 1, 2, 3, 11)
Protocol: (§3) Non-stained cells were used a control.
(§4) Cells were then stained for FACs with APC conjugated anti-PD-1 (CD279) (a, b) or subjected to qPCR (c, d) as described in the Materials and Methods. Reverse transcription was performed using the RNA polymerase chain reaction (PCR). PCRs were amplified for 40 cycles in a sequence detection system. mRNA expression was normalized against GAPDH (Glyceraldehyde 3-phosphate dehydrogenase) expression using the standard curve method.
T-cells were incubated in the presence or absence of anti-PD-1 and then subjected to FACs or qPCR as described in the Materials and Methods.

[9] = tested on: PD-1 transcription; assay: qPCR of PD-1 transcription in cells from EL4-OVA tumor-bearing OT-1 Tg mice; assay type: in vivo, mouse; settings: cells at day 12, mice 4-6 weeks (FIG. 9b)
Protocol: (§5) Single-strand cDNA was synthesized with an RT-PCR kit (Qiagen, Hilden, Germany) according to the manufacturer's instructions. Reverse transcription was performed using the RNA polymerase chain reaction (PCR) core kit (Applied Biosystems). Relative quantitative real-time PCR used SYBR green technology (Roche) on cDNA generated from the reverse transcription of purified RNA. After preamplification (95° C. for 2 min), the PCRs were amplified for 40 cycles (95° C. for 15 s and 60° C. for 60 s) in a sequence detection system (PE Prism 7000; Perkin-Elmer Applied Biosystems, USA). mRNA expression was normalized against GAPDH expression using the standard curve method. […]

[10] = tested on: Tbet (Tbx21) transcription; assay: qPCR of Tbet transcription in OT-1 T-cells stimulated in vitro by OVA peptide/EL4; assay type: cell-based, mouse; settings: OT-1 T-cells stimulated by OVA peptide in vitro (FIG. 1d)
Protocol: Single-strand cDNA was synthesized with an RT-PCR kit (Qiagen, Hilden, Germany) according to the manufacturer's instructions. Reverse transcription was performed using the RNA polymerase chain reaction (PCR) core kit (Applied Biosystems). Relative quantitative real-time PCR used SYBR green technology (Roche) on cDNA generated from the reverse transcription of purified RNA. After preamplification (95° C. for 2 min), the PCRs were amplified for 40 cycles (95° C. for 15 s and 60° C. for 60 s) in a sequence detection system (PE Prism 7000; Perkin-Elmer Applied Biosystems, USA). mRNA expression was normalized against GAPDH expression using the standard curve method.
as §4

[11] = tested on: Interferon-γ1 (IFN-γ1) expression; assay: FACS of IFN-γ1 expression on T-cells from EL4-OVA tumor-bearing mice treated in vivo; parameters: species or system mouse; settings: EL4-OVA model (FIG. 12b,c)
[12] = tested on: EL4-OVA target cells; assay: Cytotoxicity assay: OT-1 CD8+ CTL killing of EL4-OVA target cells; settings: over a range of target:effector ratios (FIG. 1e,f)
Protocol: Cytotoxicity was assayed using a Cytotox 96 nonradioactive kit (Promega) following the instructions provided and using established methods. In brief, purified T cells were plated in 96-well plates at the effector/target ratios shown using 10^4 EL4 (ova peptide-pulsed) target cells per well in a final volume of 200 μl per well using RPMI lacking phenol red. Target cells per well were in a final volume of 200 μl per well using RPMI lacking phenol red. Lactate dehydrogenase release was assayed after 4 h incubation at 37° C. by removal of 50 μl supernatant from each well and incubation with substrate provided for 30 min and the absorbance read at 490 nm using the Thermomax plate reader (Molecular Devices). Percentage cytotoxicity=((experimental effectorspontaneous−target spontaneous)/(targetmaximum−target spontaneous))×100.

[13] = tested on: FasL expression; assay: FACS of FasL expression on OVA-activated OT-1 T-cells; assay type: cell-based, mouse
Description: as §3

[14] = tested on: FasL expression; assay: FACS of FasL expression on T-cells from EL4-OVA tumor-bearing mice treated in vivo; parameters: species or system mouse; settings: negative control (FIG. 9d)
Description: Tumors were visible after 1 wk and grew progressively in an encapsulated fashion. Mice were young at 4-6 weeks.

[15] = tested on: Tbet transcription; assay: qPCR of Tbet transcription in cells from EL4-OVA tumor-bearing OT-1 Tg mice; assay type: in vivo, mouse; settings: cells at day 12, mice 4-6 weeks (FIG. 9c)
Protocol: as §5

[16] = tested on: EL4 tumor cells; assay: Intradermal EL4 / EL4-OVA tumor model in OT-1 Tg mice, tumor growth; assay type: in vivo, mouse; settings: OVA peptide 2, 5 and 10 ug, 10 days, young mice 4-6 weeks (FIG. 9a)
[17] = Oral administration in drinking water, cell numbers and viability of spleen cells
Protocol: A stock solution 1 mg/ml was made in 1% DMSO. In one set, the 10 ug stock solution was diluted in 10 ml of water. […] By 48 hours, all water was consumed. Mice were then sacrificed, spleen extracted on 60 hours, cells were spun down at 1,800 for 3 min and ACK for removal of red blood cells (RBCs) treated for 2 min. Cells were then centrifuged at 1,800 rpm for 3 min and the absence of red blood cells was confirmed by the loss of red color in the cell pellet. […] An additional stimulant of 2 ug/ml ConA was also added at 48 hours of culture.
Ex vivo extracted cells were then cultured in 48 well tissue culture plates for 48 hours in the presence of anti-CD3 on plates (1 ug/ml).

[18] = tested on: PD-1 expression on T-cells; assay: Oral administration in drinking water, PD-1 expression on ex vivo anti-CD3 activated spleen cells; parameters: species or system mouse; settings: B6 mice
Protocol: . […] By 48 hours, all water was consumed. […] Non-stained cells were used a control.

[19] = tested on: PD-1 expression on T-cells; assay: FACS of PD-1 expression on Con A activated T-cells; assay type: cell-based, mouse; settings: Con A activated T-cells (FIG. 5f)
Description: Another mode of T-cell activation involves the stimulation by the lectin Concanavalin A (Con A) (e, f). ConA binds α-D-mannosyl and α-D-glucosyl residues (two hexoses differing only by the alcohol on carbon 2) in terminal position of ramified structures from B-Glycans (reach in α-mannose, or hybrid and bi-antennary glycanes complexes). Con A is known to induce cell agglutination/clustering and to stimulate mouse T-cell subsets giving rise to four functionally distinct T cell populations, including precursors to suppressor T-cell (Dwyer and Johnson 1981 Clin Exp Immunol 46 (2): 237-49). (e) contains the bright field images of Con A activated cells with cell clustering observed in the presence and absence of GSK-3 inhibitor TDZD-8.

## COc1ccc(CNC(=O)Nc2ncc([N+](=O)[O-])s2)cc1 [AR-A014418, N-[(4-Methoxyphenyl)methyl]-N′-(5-nitro-2-thiazolyl)urea]
[1]
  PD-1 expression induced in the MLR (FACS): inhibition of PD-1 expression
[2]
  inhibition of anti-CD3 induced increase in PD-1 expression (MFI): > 45%

## Cc1c[nH]c(-c2cnc(NCCNc3ccc(C#N)cn3)nc2-c2ccc(Cl)cc2Cl)n1.Cl [CHIR-99021, 6-(2-(4-(2,4-dichlorophenyl)-5-(4-methyl-1H-imidazol-2-yl)pyrimidin-2-ylamino)ethylamino)nicotinonitrile hydrochloride]
[1]
  PD-1 expression induced in the MLR (FACS): inhibition of PD-1 expression
[2]
  inhibition of anti-CD3 induced increase in PD-1 expression (MFI): > 55%

## Cn1cc(C2=C(c3ccc(Cl)cc3Cl)C(=O)NC2=O)c2ccccc21 [SB216763, 3-(2,4-dichlorophenyl)-4-(1-methyl-1H-indol-3-yl)-1H-pyrrole-2,5-dione]
[3]
  CD69 expression after in vivo administration (FACS): minor increase in CD69 expression
[4]
  CD3 expression (FACS profile): unaltered CD3 expression
[5]; mice 4-6 weeks (FIG. 9d)
  PD-1 expression on T-cells after in vivo administration (flow cytometry): PD-1 expression is reduced
[5]; tumor elimination (FIG. 12a)
  PD-1 expression on T-cells after in vivo administration (FACS): down-regulation of PD-1
[6]
  inhibition of a panel of 24 other protein kinases: Neither compound significantly inhibited any member
[7]
  CTLA-4 expression after in vivo administration (FACS): minor increase
[8]
  PD-1 surface expression (FACS profile): reduced PD-1 expression; also recorded: decreased the number of cells expressing PD-1
[9]
  PD-1 transcription in vivo (qPCR): inhibition of PD-1 transcription at all doses of OVA peptide
[10]
  Tbet transcription (qPCR): increased Tbet transcription
[11]
  IFN-γ1 expression after in vivo administration (FACS): increase expression of IFN-γ1 on a greater number of cells
[12]
  OT-1 CTL killing of EL4-OVA targets (CTL function): increase CTL function
[13]
  FasL expression (FACS profile): unaltered FasL expression
[14]
  FasL expression after in vivo administration (flow cytometry): absence of an effect on FasL expression
[15]
  Tbet transcription in vivo (qPCR): increased Tbet transcription
[16]
  tumor growth: prevented tumor growth at all concentrations of OVA peptide

## Cn1sc(=O)n(Cc2ccccc2)c1=O [TDZD-8, 1,2,4-Thiadiazolidine-3,5-dione, 2-methyl-4-(phenylmethyl)]
[17]; 48 hours ex vivo culture (FIG. 13b,c)
  cell death / viability of cells in ex vivo culture after oral administration: no indication of cell death; also recorded: no obvious long-term effect on viability
[17]; oral, 2 mg/kg, spleen extracted at 60 hours
  spleen cell numbers, drug treated versus untreated mice: No difference on cell numbers
[2]
  inhibition of anti-CD3 induced increase in PD-1 expression (MFI): > 50%
[18]; drug in drinking water (FIG. 13e)
  percentage of T-cells expressing PD-1 after oral administration: reduce the percentage of T-cells expressing PD-1
[18]; drug in drinking water, ex vivo anti-CD3 48 hours (FIG. 13d)
  PD-1 expression on ex vivo cells after oral administration (FACS): lower expression of PD-1
[19]
  fewer PD-1 positive cells: > 45%
